This passage reports IC50 results from US20260138990A1, “TRICYCLIC FUSED IMIDAZOLE COMPOUNDS AS CD38 MODULATORS AND USES THEREOF” (AEOVIAN PHARMACEUTICALS, INC., priority 2023, published 2026).

One assay deals with T1, human CD38 (Homo sapiens, UniProt P28907).
T1 construct: purchased Bio-Techne GmbH AVI2404
T1 sequence (P28907 1-300): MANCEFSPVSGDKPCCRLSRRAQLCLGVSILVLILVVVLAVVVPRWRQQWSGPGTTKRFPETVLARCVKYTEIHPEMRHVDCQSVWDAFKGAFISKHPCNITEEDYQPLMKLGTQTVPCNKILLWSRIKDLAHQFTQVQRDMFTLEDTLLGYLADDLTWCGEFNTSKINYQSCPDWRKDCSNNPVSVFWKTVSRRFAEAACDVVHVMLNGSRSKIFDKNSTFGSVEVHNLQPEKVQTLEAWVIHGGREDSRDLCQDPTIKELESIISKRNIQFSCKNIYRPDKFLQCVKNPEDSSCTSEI
Description: NAD+ cyclase activity assay with human recombinant CD38 protein (ε-NAD fluorescence). The assay is classed as biochemical. The following applies: 1.9 nM human CD38, substrate ε-NAD, 30 min preincubation, fluorescence 300/410 nm. On the procedure:
(§1) Example 4: NAD^+ Cydase Activity Assay with Human or Mouse Recombinant CD38 Protein
(§2) The following assay was used to determine the ability of compounds of the invention to inhibit the hydrolysis of NAD^+ by the human or mouse enzyme, CD38.
(§3) Reaction buffer: 40 mM HEPES/NaOH pH 7.5, 250 mM sucrose, 0.01% Tween
(§4) Final concentrations: 0.6 nM mouse CD38 (4947-AC, Bio-Techne GmbH) 1.9 nM human CD38 (AVI2404, Bio-Techne GmbH)
(§5) Substrate: […] Nicotinamide 1,N6-ethenoadenine dinucleotide (&-NAD)
(§6) Read-out: Fluorescence intensity (extinction 300 nm/emission 410 nm)
(§7) Required reaction buffer, required CD38 concentration in reaction buffer and required e-NAD concentration in reaction buffer were prepared. Thereafter, 8 μL of CD38 in reaction buffer was added to High Control and compound concentration wells in 384 well plate (Corning #4514, 384 well, nonbinding surface, low volume, round bottom) and 8 μL of reaction buffer to Low Control. Compound dilutions were transferred via pintool technology that transfers 42.5 nL compound dilutions (12-point dose-response with factor three dilutions in 100% DMSO) well-to-well. Plate was subsequently shaken for 15 s at 1450 rpm and sealed for incubation for 30 min at room temperature. Thereafter, 2 μL of e-NAD in reaction buffer were added with Integra Voyager. After shaking for 15 s at 1450 rpm, plate was sealed, and assay signal were measured continuously with PHERAstar® fluorescence intensity module (extinction 300 nm/emission 410 nm).
(§8) Dose-response curves were constructed using twelve-pointfactor three dilutions in triplicates per plate. High control (full enzyme activity) was set to assay signal of CD38 and e-NAD in presence of vehicle (DMSO) and Low control (full enzyme inhibition) was set to assay signal of e-NAD and vehicle (DMSO) in absence of CD38. For data analysis, fluorescent signal of traces corresponding to each compound concentration and High and Low control were monitored over time. Each run, High Control (full enzyme activity) was fitted to Linear equation via GraphPad Prism to determine CD38 activity from the slope and determine the time interval of linear phase of reaction to account for minor fluctuations. Thereafter, slopes of all compound concentrations were determined via fitting to same linear equation (GraphPad Prism) over the same time interval as determined for High control. […] Unless otherwise stated, fitting of curves were fixed to 100%-inhibition and unlocked for 0%-inhibition.

The target of a further assay is T2, mouse CD38 (Mus musculus, UniProt P56528).
T2 construct: purchased Bio-Techne GmbH 4947-AC
T2 sequence (P56528 1-304): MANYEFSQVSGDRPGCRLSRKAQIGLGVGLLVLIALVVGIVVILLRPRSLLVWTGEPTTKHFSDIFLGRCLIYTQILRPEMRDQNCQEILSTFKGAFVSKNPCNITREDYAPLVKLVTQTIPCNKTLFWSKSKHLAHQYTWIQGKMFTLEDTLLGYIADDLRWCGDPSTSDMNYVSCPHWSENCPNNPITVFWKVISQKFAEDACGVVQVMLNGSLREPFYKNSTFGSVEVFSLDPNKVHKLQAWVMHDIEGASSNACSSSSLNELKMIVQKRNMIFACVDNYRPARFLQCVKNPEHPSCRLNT
Description: NAD+ cyclase activity assay with mouse recombinant CD38 protein (ε-NAD fluorescence). The assay is classed as biochemical. The conditions noted are these: 0.6 nM mouse CD38, substrate ε-NAD, 30 min preincubation, fluorescence 300/410 nm. Here is the method: as §1, §2, §3, §4, §5, §6, §7, §8

For `C[C@H]1CCCC[C@@H]1NC(=O)c1cc(F)c2c(c1)-c1cncn1CCO2` (relative stereo) [Compound 174A, 8-Fluoro-N-(trans-2-methylcyclohexyl)-5,6-dihydrobenzo[f]imidazo[1,5-d][1,4]oxazepine-10-carboxamide], the half-maximal inhibitory concentration (IC50) on human CD38 was less than 0.03 µM; on mouse CD38, less than 0.001 µM. As to `C[C@@H]1CCCC[C@@H]1NC(=O)c1cc(F)c2c(c1)-c1cncn1CCO2` (relative stereo) [Compound 175A, 8-Fluoro-N-(cis-2-methylcyclohexyl)-5,6-dihydrobenzo[f]imidazo[1,5-d][1,4]oxazepine-10-carboxamide], the values for the concentration for half-maximal inhibition (IC50) at human CD38 and at mouse CD38 were less than 0.03 µM and 0.001 to 0.01 µM, respectively.

Consider `C[C@@H]1CCC[C@@H](C)C1NC(=O)c1cc(F)c2c(c1)-c1cncn1CCO2` (relative stereo) [Compound 177A, N-(trans-2-cis-6-Dimethylcyclohexyl)-8-fluoro-5,6-dihydrobenzo[f]imidazo[1,5-d][1,4]oxazepine-10-carboxamide], for which the IC50 on human CD38 is less than 0.03 µM; on mouse CD38 it was 0.001 to 0.01 µM. `C[C@@H]1C[C@H](CC(F)(F)F)CC[C@@H]1NC(=O)c1cc(Cl)c2c(c1)-c1cncn1CCO2` (relative stereo) [Compound 184A, 8-Chloro-N-(cis-2-methyl-cis-4-(2,2,2-trifluoroethyl)cyclohexyl)-5,6-dihydrobenzo[f]imidazo[1,5-d][1,4]oxazepine-10-carboxamide]: at human CD38, the half-inhibitory concentration (IC50) was in the range of 0.1 to 1 µM.

As for `C[C@@H]1C[C@H](CC(F)(F)F)CC[C@@H]1NC(=O)c1cc(F)c2c(c1)-c1cncn1CCO2` (relative stereo) [Compound 186A, 8-Fluoro-N-(cis-2-methyl-cis-4-(2,2,2-trifluoroethyl)cyclohexyl)-5,6-dihydrobenzo[f]imidazo[1,5-d][1,4]oxazepine-10-carboxamide], the IC50 at human CD38 is 0.03 to 0.1 µM. Consider `O=C(N[C@@H]1CCCOC1)c1ccc2c(c1)-c1cncn1CCO2` [Compound 1A, (R)—N-(Tetrahydro-2H-pyran-3-yl)-5,6-dihydrobenzo[f]imidazo[1,5-d][1,4]oxazepine-10-carboxamide], for which the IC50 at human CD38 was less than 0.03 µM; on mouse CD38, less than 0.001 µM.

Take `O=C(N[C@@H]1CCS(=O)(=O)C1)c1ccc2c(c1)-c1cncn1CCO2` [Compound 2A, (R)—N-(1,1-Dioxidotetrahydrothiophen-3-yl)-5,6-dihydrobenzo[f]imidazo[1,5-d][1,4]oxazepine-10-carboxamide]: the values for the 50% inhibitory concentration (IC50) on human CD38 and at mouse CD38 were less than 0.03 µM and 0.001 to 0.01 µM, respectively. On to `COCCO[C@H]1CC[C@H](NC(=O)c2ccc3c(c2)-c2cncn2CCO3)CC1` [Compound 3A, N-((1r,4r)-4-(2-Methoxyethoxy)cyclohexyl)-5,6-dihydrobenzo[f]imidazo[1,5-d][1,4]oxazepine-10-carboxamide], for which the IC50 on human CD38 is less than 0.03 µM; on mouse CD38, 0.001 to 0.01 µM.

Consider `CS(=O)(=O)N1CCC(NC(=O)c2ccc3c(c2)-c2cncn2CCO3)CC1` [Compound 4A, N-(1-(Methylsulfonyl)piperidin-4-yl)-5,6-dihydrobenzo[f]imidazo[1,5-d][1,4]oxazepine-10-carboxamide], for which the IC50 at human CD38 is less than 0.03 µM; at mouse CD38, 0.001 to 0.01 µM.

Regarding `O=C(N[C@@H]1CCCOC1)c1ccc2c(n1)-n1cncc1CCO2` [Compound 42A, (R)—N-(tetrahydro-2H-pyran-3-yl)-6,7-dihydroimidazo[1,5-d]pyrido[3,2-b][1,4]oxazepine-2-carboxamide], the 50% inhibitory concentration (IC50) at mouse CD38 is 0.01 to 0.1 µM. On to `O=C(N[C@@H]1CCCOC1)c1ccc2c(n1)-n1cnc(c1)CCO2` [Compound 43A, (Z)—N—((R)-Tetrahydro-2H-pyran-3-yl)-5,6-dihydro-1,4-(metheno)pyrido[3,2-b][1,4,6]oxadiazonine-10-carboxamide], for which the IC50 on human CD38 was more than 1 µM. Turning to `COc1nc2cc(NC(=O)c3ccc4c(c3)-c3cncn3CCO4)ccc2s1` [Compound 44A, N-(2-Methoxybenzo[d]thiazol-5-yl)-5,6-dihydrobenzo[f]imidazo[1,5-d][1,4]oxazepine-10-carboxamide], on human CD38, the IC50 was less than 0.03 µM. Regarding `COCCOc1nc2cc(NC(=O)c3ccc4c(c3)-c3cncn3CCO4)ccc2s1` [Compound 45A, N-(2-(2-Methoxyethoxy)benzo[d]thiazol-5-yl)-5,6-dihydrobenzo[f]imidazo[1,5-d][1,4]oxazepine-10-carboxamide], the 50% inhibitory concentration (IC50) on human CD38 is less than 0.03 µM. `COCCO[C@H]1CC[C@H](NC(=O)c2cc3c(c(C)c2C)OCCn2cncc2-3)CC1` [Compound 179A, N-((1r,4r)-4-(2-Methoxyethoxy)cyclohexyl)-8,9-dimethyl-5,6-dihydrobenzo[f]imidazo[1,5-d][1,4]oxazepine-10-carboxamide]: the IC50 at human CD38 lay in the range of 0.1 to 1 µM. Still for that read-out and setting: in the case of `Cc1c(C(=O)NC2CCC(F)(F)CC2)cc2c(c1C)OCCn1cncc1-2` [Compound 180A, N-(4,4-Difluorocyclohexyl)-8,9-dimethyl-5,6-dihydrobenzo[f]imidazo[1,5-d][1,4]oxazepine-10-carboxamide] it was 0.1 to 1 µM; in that of `O=C(NC1CCCC(C(F)(F)F)C1)c1cc(Cl)c2c(c1)-c1cncn1CCO2` (stereo not drawn) [Compound 181A, 8-Chloro-N-(3-(trifluoromethyl)cyclohexyl)-5,6-dihydrobenzo[f]imidazo[1,5-d][1,4]oxazepine-10-carboxamide], less than 0.03 µM.

`Cc1cc(CC(F)(F)F)ccc1NC(=O)c1cc(Cl)c2c(c1)-c1cncn1CCO2` [Compound 182A, 8-Chloro-N-(2-methyl-4-(2,2,2-trifluoroethyl)phenyl)-5,6-dihydrobenzo[f]imidazo[1,5-d][1,4]oxazepine-10-carboxamide]: the concentration for half-maximal inhibition (IC50) on human CD38 lay within 0.03 to 0.1 µM. Take `CC1CC(CC(F)(F)F)CCC1NC(=O)c1cc(Cl)c2c(c1)-c1cncn1CCO2` (stereo not drawn) [Compound 183A, 8-Chloro-N-(2-methyl-4-(2,2,2-trifluoroethyl)cyclohexyl)-5,6-dihydrobenzo[f]imidazo[1,5-d][1,4]oxazepine-10-carboxamide]: the IC50 at human CD38 was less than 0.03 µM. As to `CC1CC(CC(F)(F)F)CCC1NC(=O)c1cc(F)c2c(c1)-c1cncn1CCO2` (stereo not drawn) [Compound 185A, 8-Fluoro-N-(2-methyl-4-(2,2,2-trifluoroethyl)cyclohexyl)-5,6-dihydrobenzo[f]imidazo[1,5-d][1,4]oxazepine-10-carboxamide], the 50% inhibitory concentration (IC50) at human CD38 was less than 0.03 µM. Regarding `O=C(N[C@H]1CC[C@H](OCC(F)(F)F)CC1)c1cc2c(c(F)c1F)OCCn1cncc1-2` [Compound 187A, 8,9-Difluoro-N-((1r,4r)-4-(2,2,2-trifluoroethoxy)cyclohexyl)-5,6-dihydrobenzo[f]imidazo[1,5-d][1,4]oxazepine-10-carboxamide], on human CD38, the IC50 is less than 0.03 µM. For the compound `O=C(N[C@H]1CC[C@@H](OCC(F)(F)F)CC1)c1cc2c(c(F)c1F)OCCn1cncc1-2` [Compound 188A, 8,9-Difluoro-N-((1s,4s)-4-(2,2,2-trifluoroethoxy)cyclohexyl)-5,6-dihydrobenzo[f]imidazo[1,5-d][1,4]oxazepine-10-carboxamide], the IC50 at human CD38 fell in the range of 0.1 to 1 µM.

For `Cc1c(C(=O)NC2CCC(OCC(F)(F)F)CC2)cc2c(c1C)OCCn1cncc1-2` (stereo not drawn) [Compound 189A, 8,9-Dimethyl-N-(4-(2,2,2-trifluoroethoxy)cyclohexyl)-5,6-dihydrobenzo[f]imidazo[1,5-d][1,4]oxazepine-10-carboxamide], at human CD38, the concentration for half-maximal inhibition (IC50) fell in the range of 0.1 to 1 µM. Same read-out and setting: as for `COCCO[C@H]1CC[C@H](NC(=O)c2cc3c(c(Cl)c2C)OCCn2cncc2-3)CC1` [Compound 191A, 8-Chloro-N-((1r,4r)-4-(2-methoxyethoxy)cyclohexyl)-9-methyl-5,6-dihydrobenzo[f]imidazo[1,5-d][1,4]oxazepine-10-carboxamide], the figure is 0.03 to 0.1 µM.
